In PMC3569060 (Molecular cancer therapeutics, 2012):

Experiments:
[1] = biological target: T1, hRR (hRR1 + hRR2) (Homo sapiens, UniProt P23921); format: biochemical
T1 sequence (P23921 1-792): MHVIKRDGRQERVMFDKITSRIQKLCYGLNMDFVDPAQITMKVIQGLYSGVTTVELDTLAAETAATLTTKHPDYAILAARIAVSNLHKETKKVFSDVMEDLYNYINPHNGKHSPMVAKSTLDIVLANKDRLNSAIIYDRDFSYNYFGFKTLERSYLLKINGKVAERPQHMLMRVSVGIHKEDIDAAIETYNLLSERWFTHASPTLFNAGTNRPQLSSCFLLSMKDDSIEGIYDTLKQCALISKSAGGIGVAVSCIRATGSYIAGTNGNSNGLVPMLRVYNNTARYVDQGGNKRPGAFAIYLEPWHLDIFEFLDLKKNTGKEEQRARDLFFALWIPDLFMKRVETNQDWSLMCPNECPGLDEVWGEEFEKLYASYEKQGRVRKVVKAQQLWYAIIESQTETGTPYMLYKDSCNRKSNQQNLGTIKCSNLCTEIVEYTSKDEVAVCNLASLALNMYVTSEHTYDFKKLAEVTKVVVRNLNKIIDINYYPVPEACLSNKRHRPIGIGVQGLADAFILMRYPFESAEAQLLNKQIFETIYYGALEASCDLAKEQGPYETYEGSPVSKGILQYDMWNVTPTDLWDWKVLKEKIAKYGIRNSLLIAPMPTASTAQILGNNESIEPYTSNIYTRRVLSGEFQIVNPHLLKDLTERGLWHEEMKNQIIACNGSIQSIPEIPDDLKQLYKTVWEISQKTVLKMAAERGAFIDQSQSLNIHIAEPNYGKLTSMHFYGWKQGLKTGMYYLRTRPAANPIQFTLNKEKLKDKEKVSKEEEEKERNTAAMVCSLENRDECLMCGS
T1 sequence (P31350 1-389 partner): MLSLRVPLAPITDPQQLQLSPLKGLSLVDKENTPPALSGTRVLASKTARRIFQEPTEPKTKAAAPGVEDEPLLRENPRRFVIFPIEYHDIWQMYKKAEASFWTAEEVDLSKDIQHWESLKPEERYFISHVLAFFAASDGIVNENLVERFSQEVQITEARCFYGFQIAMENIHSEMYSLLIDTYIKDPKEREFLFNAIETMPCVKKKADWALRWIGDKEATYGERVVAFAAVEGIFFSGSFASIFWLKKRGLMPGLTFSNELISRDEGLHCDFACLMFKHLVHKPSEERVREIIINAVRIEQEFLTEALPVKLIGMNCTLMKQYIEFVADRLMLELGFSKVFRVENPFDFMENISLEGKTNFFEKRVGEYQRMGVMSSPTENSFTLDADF

[2] = biological target: T2, ScRR1 (Saccharomyces cerevisiae, UniProt P21524); experiment: X-ray crystal structure, […] Å, crystal soaking; format: binding; conditions: allosteric S-site; Mg2+ bound at alpha- and gamma-phosphates
T2 sequence (P21524 1-888): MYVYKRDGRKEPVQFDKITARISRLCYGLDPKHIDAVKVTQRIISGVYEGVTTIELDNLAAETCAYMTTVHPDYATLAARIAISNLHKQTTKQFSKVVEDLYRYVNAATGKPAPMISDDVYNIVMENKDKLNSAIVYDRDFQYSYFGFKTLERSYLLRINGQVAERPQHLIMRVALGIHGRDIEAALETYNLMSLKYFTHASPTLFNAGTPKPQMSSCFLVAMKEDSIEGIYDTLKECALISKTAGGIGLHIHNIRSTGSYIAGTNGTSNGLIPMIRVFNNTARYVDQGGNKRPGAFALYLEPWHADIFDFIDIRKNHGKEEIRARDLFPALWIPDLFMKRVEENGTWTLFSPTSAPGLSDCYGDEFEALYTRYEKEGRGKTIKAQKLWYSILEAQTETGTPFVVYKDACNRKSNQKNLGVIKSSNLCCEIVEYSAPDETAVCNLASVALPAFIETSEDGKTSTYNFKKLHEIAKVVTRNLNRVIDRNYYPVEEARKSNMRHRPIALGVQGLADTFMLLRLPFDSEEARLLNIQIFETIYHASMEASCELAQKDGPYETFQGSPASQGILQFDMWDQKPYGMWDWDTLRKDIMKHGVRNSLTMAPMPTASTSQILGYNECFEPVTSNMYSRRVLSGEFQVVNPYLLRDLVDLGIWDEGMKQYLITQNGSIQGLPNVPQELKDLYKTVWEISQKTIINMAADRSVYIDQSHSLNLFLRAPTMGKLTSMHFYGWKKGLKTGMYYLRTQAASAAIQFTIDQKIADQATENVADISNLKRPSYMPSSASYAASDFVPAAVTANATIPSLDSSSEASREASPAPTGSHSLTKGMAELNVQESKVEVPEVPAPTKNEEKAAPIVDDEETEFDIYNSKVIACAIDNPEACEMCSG

- IC50 [1]: 170 ± 5 µM
Structure (SMILES): O=[N+]([O-])c1ccc2c(ccn2[C@H]2C[C@H](O)[C@@H](COP(=O)(O)OP(=O)(O)OP(=O)(O)O)O2)c1 [5-NITP]
- X-ray crystal structure, 2.3 Å, crystal soaking [2]: clearly shows electron density for 5-NITP bound at the S-site
